Data taken from patent US7273848B2, “Apolipoprotein A-I agonists and their use to treat dyslipidemic disorders” (priority 1997, dated 2007).
Non-standard residues stand in square brackets, D forms with d. Residues, ends and D or L forms follow the SMILES beside them. No end group written: not given here. 1Nal = N[C@@H](Cc1cccc2ccccc12)C(=O)O; Aib = CC(C)(N)C(=O)O

Experiments:
[1] = target: T1, LCAT (purified from human plasma) (Homo sapiens, UniProt P04180); experiment: LCAT activation assay; assay type: biochemical; details: LCAT activation as compared with native human ApoA-I (= 100%), equivalent masses
T1 construct: from tissue; host or cells: human plasma
T1 sequence (P04180 25-440): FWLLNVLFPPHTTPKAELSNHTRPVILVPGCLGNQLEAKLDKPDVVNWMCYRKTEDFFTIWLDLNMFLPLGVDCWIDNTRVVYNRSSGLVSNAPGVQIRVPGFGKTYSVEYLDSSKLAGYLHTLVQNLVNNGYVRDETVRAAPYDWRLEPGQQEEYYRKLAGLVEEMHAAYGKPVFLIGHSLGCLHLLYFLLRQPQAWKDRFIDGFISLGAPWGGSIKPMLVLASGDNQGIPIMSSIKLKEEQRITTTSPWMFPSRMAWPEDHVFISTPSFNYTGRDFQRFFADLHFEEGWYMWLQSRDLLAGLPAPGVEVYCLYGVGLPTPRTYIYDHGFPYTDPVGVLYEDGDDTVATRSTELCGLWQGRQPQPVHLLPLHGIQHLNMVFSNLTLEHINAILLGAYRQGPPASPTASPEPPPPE
Summary of the method: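 Substrate SUVs of EPC or POPC with 14C-cholesterol (20:1 molar ratio), in 10 mM Tris, 0.14 M NaCl, 1 mM EDTA, pH 7.4, were preincubated with peptide or equal mass of plasma ApoA-I. Reaction started with human plasma LCAT; activation was measured as cholesterol-to-ester conversion relative to ApoA-I (100%).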

[2] = Circular dichroism helicity determination; assay type: physicochemical; details: percent helicity; for He (%) TFE: 5 μM peptide, 90% vol TFE; for He (%) TFE / He (%) SUVs: 37° C.; for He (%) free: unbound peptide 5 μM in 5 mM phosphate buffer, pH 7.4, 37° C.; for He (%) SUVs: peptide-SUV complexes (20:1 EPC:Chol., Ri=30 and Ri=50); for He (%) mics: peptide-micelle complexes, Ri=100, 37° C.
Experimental: Far UV circular dichroism spectra were recorded between 190 and 260 nm (in 0.5 nm or 0.2 nm increments) with a AVIV62DS spectrometer (AVIV Associates, Lakewood, N.J., USA) equipped with a thermoelectric cell holder and sample changer. The instrument was calibrated with (+)-10-[…]. Between one and three scans were collected for each sample, using 10 cm, 5 cm, 1 cm and 0.1 cm path length quartz Suprasil cells, respectively, for peptide concentrations of 10^−7 M to 10^−4 M. The bandwidth was fixed at 1.5 nm and the scan speed to 1s per wavelength step. The reported data are the mean of at least 2 or 3 independent measurements.
After background substraction, spectra were converted to molar ellipticity (θ) per residue in deg. […] dmol^−1. The peptide concentration was determined by amino acid analysis and also by absorption spectrometry on a Perkin Elmer Lambda 17 UV/Visible spectrophotometer when the peptide contained a chromophore (tryptophane, dansyl, naphtylalanine).
CD spectra were obtained with free, unbound peptide (5 μM in 5 mM phosphate buffer, pH 7.4); with peptide-SUV complexes (20:1 EPC:Chol., Ri=30 and Ri=50); with peptide-micelle complexes (1-myristoyl-2-hydroxy-sn-glycero-3-phosphatidyl choline, Ri=100); and with free, unbound peptide in the presence of 2,2,2-trifluoroethanol (TFE) (5 μM peptide, 90% vol TFE).
The SUVs were obtained by dispersing the lipids (10 mM, 20:1 EPC:Chol., Avanti Polar Lipids, AL) in phosphate buffer (5 mM, pH 7.4) with bubbling N2 for 5 min., followed by sonication (1.5 hr.) in a bath sonicator. The homogeneity of the preparation was checked by FPLC.
The micelles were obtained by dispersing the lipid (6 mM 1-myristoyl-2-hydroxy-sn-glycero-3-phosphatidyl choline, Avanti Polar Lipids, AL) in phosphate buffer (5 mM, pH 7.4) with bubbling N2 for 5 min., followed by vortexing.
To obtain the peptide-SUV complexes, SUVs were added to the peptide (5 μM in 5 mM phosphate buffer, pH 7.4) at a phospholipid-peptide molar ratio (Ri) of 30 or 50.
To obtain the peptide-micelle complexes, micelles were added to the peptide (5 μM in 5 mM phosphate buffer, pH 7.4) at a Ri of 100.
All spectra were recorded at 37° C.
The degree of helicity of the peptides in the various conditions was determined from the mean residue ellipticity at 222 nm (Chen et al., 1974, Biochemistry 13:3350-3359) or by comparing the CD spectra obtained to reference spectra available on databases (16 helical reference spectra from Provencher & Glockner, 1981, Biochemistry 20:33-37; denatured protein reference spectra from Venyaminov et al., 1993, Anal. Biochem. 214:17-24) using the CONTIN curve-fitting algorithm version 2DP, CD-1 pack (August 1982) (Provencher, 1982, Comput. Phys. Commun. 27:213-227, 229-242). Acceptable fit was determined using the statistical analysis methodology provided by the CONTIN algorithm. The error of all methods was ±5% helicity.

Compound | ACTIVITY (%) LCAT [1] [%] | He (%) TFE [2] [%] | He (%) free [2] [%] | He (%) SUVs [2] [%] | He (%) mics [2] [%] | ACTIVITY (%) LCAT ([1]; listed as 18AM4)
PVLDEFREKLNEALEALKQKLK [peptide 94, reference compound] | 5 | 63 | 18 | 27 | 70 | –
CC(C)C[C@@H](NC(=O)[C@H](N)CCCCN)C(=O)N[C@H](CCCCN)C(=O)N[C@H](CCC(N)=O)C(=O)N[C@H](CCCCN)C(=O)N[C@H](CC(C)C)C(=O)N[C@H](C)C(=O)N[C@H](CCC(=O)O)C(=O)N[C@H](CC(C)C)C(=O)N[C@H](CC(C)C)C(=O)N[C@H](CCC(=O)O)C(=O)N[C@H](CC(N)=O)C(=O)N[C@H](CC(C)C)C(=O)N[C@H](CC(C)C)C(=O)N[C@H](CCC(=O)O)C(=O)N[C@H](CCCNC(=N)N)C(=O)N[C@H](Cc1ccccc1)C(=O)N[C@H](CC(C)C)C(=O)N[C@H](CC(=O)O)C(=O)N[C@H](CC(C)C)C(=O)N[C@@H](C(=O)N1CCC[C@@H]1C(=O)O)C(C)C [compound 107, klkqklaellenllerfldlvp] | 0 | 77 | – | – | – | –
PVLDLFRELLEELLKALKKKLK [compound 39] | 25 | 72 | 66 | 68 | 69 | –
CC(C)C[C@H](NC(=O)[C@H](C)NC(=O)[C@H](CCC(=O)O)NC(=O)[C@H](CC(C)C)NC(=O)[C@H](CC(C)C)NC(=O)[C@H](CCC(=O)O)NC(=O)[C@H](CC(N)=O)NC(=O)[C@H](CC(C)C)NC(=O)[C@H](CC(C)C)NC(=O)[C@H](CCC(=O)O)NC(=O)[C@H](CCCNC(=N)N)NC(=O)[C@H](Cc1ccccc1)NC(=O)[C@H](CC(C)C)NC(=O)[C@H](CC(=O)O)NC(=O)[C@H](CC(C)C)NC(=O)[C@@H](NC(=O)[C@@H]1CCCN1)C(C)C)C(=O)N[C@@H](CCCCN)C(=O)N[C@@H](CCC(N)=O)C(=O)N[C@@H](CCCCN)C(=O)N[C@@H](CC(C)C)C(=O)N[C@@H](CCCCN)C(=O)O [compound 4] | 93 | 94 | 80 | 97 | 95 | –
PLLNELLEALKQKLK [compound 104] | 1 | 55 | 21 | 29 | 49 | –
CC(C)C[C@H](NC(=O)[C@H](C)NC(=O)[C@H](CCC(=O)O)NC(=O)[C@H](Cc1c[nH]c2ccccc12)NC(=O)C(C)(C)NC(=O)[C@H](CCC(=O)O)NC(=O)[C@H](CC(N)=O)NC(=O)[C@H](CC(C)C)NC(=O)[C@H](CCCCN)NC(=O)[C@H](CCC(=O)O)NC(=O)[C@H](CCCNC(=N)N)NC(=O)[C@H](Cc1ccccc1)NC(=O)[C@H](CCC(=O)O)NC(=O)[C@H](CC(=O)O)NC(=O)[C@H](CC(C)C)NC(=O)[C@@H](NC(=O)[C@@H]1CCCN1)C(C)C)C(=O)N[C@@H](CCCCN)C(=O)N[C@@H](CCC(N)=O)C(=O)N[C@@H](CCCCN)C(=O)N[C@@H](CC(C)C)C(=O)N[C@@H](CCCCN)C(=O)O [compound 42, PVLDEFREKLNEXWEALKQKLK] (H-PVLDEFREKLNE[Aib]WEALKQKLK-OH) | 25 | 76 | 15 | 27 | 74 | –
Ac-PVLDLFRELLEELKQKLK-NH2 [compound 193] | 96 | 87 | 34 | 87 | 88 | –
Ac-PVLDLFKELLEELKQKLK-NH2 [compound 192] | 100 | 56 | 36 | – | – | –
PVLELFENLLERLGDALQKKLK [peptide 148] | 75 | 80 | 10 | 23 | 76 | –
PVLELFENLLERGLDALQKKLK [peptide 154] | 39 | 80 | 13 | 25 | 76 | –
PVLDEFREKLNERLEALKQKLK [peptide 109, reference compound] | 0 | 58 | 19 | 23 | 45 | –
PVLDLFRELWNELLEALKQKLK [peptide 15] | 60 | 68 | 55 | 64 | 60 | –
CC(C)C[C@H](NC(=O)[C@H](CCCCN)NC(=O)[C@H](CCC(N)=O)NC(=O)[C@H](CCCCN)NC(=O)[C@H](Cc1cccc2ccccc12)NC(=O)[C@H](C)NC(=O)[C@H](CCC(=O)O)NC(=O)[C@H](CC(C)C)NC(=O)[C@H](CC(C)C)NC(=O)[C@H](CCC(=O)O)NC(=O)[C@H](CC(N)=O)NC(=O)[C@H](CC(C)C)NC(=O)[C@H](CC(C)C)NC(=O)[C@H](CCC(=O)O)NC(=O)[C@H](CCCNC(=N)N)NC(=O)[C@H](Cc1ccccc1)NC(=O)[C@H](CC(C)C)NC(=O)[C@H](CC(=O)O)NC(=O)[C@H](CC(C)C)NC(=O)[C@@H](NC(=O)[C@@H]1CCCN1)C(C)C)C(=O)N[C@@H](CCCCN)C(=O)O [peptide 10, PVLDLFRELLNELLEAZKQKLK] (H-PVLDLFRELLNELLEA[1Nal]KQKLK-OH) | 79 | 71 | 60 | 70 | 87 | –
PVLELFENLLERLWDALQKKLK [compound 163] | 26 | 55 | 27 | – | 53 | –
EWLEAFYKKVLEKLKELF [peptide 246, reference compound] | 4 | – | 18 | 47 | 44 | less than 4%
LDDLLQKWAEAFNQLLKK [peptide 237, reference compound] | 11 | – | 30 | 45 | 66 | –
